Assay: xn = mol fraction of the nth substance listed
Details: 101 kPa

CC(O)C(=O)[O-].C[N+](C)(C)CCO + CCO
viscosity [mPa·s]
Details | x2 = 0 | x2 = 0.1039 | x2 = 0.2011 | x2 = 0.2996 | x2 = 0.3999 | x2 = 0.5003 | x2 = 0.601 | x2 = 0.7013 | x2 = 0.7987 | x2 = 0.8996
293.15 K | 818 | 553 | 365 | – | 132.5 | 73.48 | 39.35 | – | – | 3.602
298.15 K | 559 | 388 | 263.7 | 165.1 | 101.5 | 57.11 | 31.94 | 14.73 | – | 3.207
303.15 K | 393 | 277.4 | 193.2 | 123.9 | 78.06 | 45.19 | – | 12.36 | 6.351 | –
308.15 K | 283.9 | 203.7 | – | 94.9 | 61.01 | 36.35 | 21.38 | 10.49 | 5.524 | 2.548
313.15 K | 209.9 | 152.9 | 110.8 | 74.08 | 48.57 | 29.65 | 17.83 | 8.99 | 4.841 | 2.286
318.15 K | – | 117.2 | 86.3 | 58.82 | 39.27 | 24.51 | – | 7.773 | 4.27 | 2.059
323.15 K | 122.3 | – | 68.43 | 47.45 | 32.22 | – | 12.83 | 6.779 | – | 1.862
328.15 K | 95.9 | – | 55.07 | 38.8 | 26.76 | 17.33 | – | 5.952 | – | 1.685
333.15 K | 76.5 | – | 44.95 | 32.13 | 22.49 | 14.8 | – | 5.255 | 3.041 | 1.525
338.15 K | 61.9 | 47.9 | 37.15 | 26.9 | – | 12.76 | 8.445 | 4.66 | 2.747 | 1.38
343.15 K | 50.76 | 39.73 | 31.06 | 22.76 | 16.36 | 11.09 | 7.459 | 4.145 | 2.498 | 1.265
